Structures are written as SMILES. Values joined by “and” are separate entries in the source; they are usually repeats but may differ in a detail not shown here. Equal entries are not always repeated. Where only a bound is given, the exact number is not on record here.

For the series the following is noted: rat; liver microsomes; pH 7.4; 15.0 min; 1.0 µM.
One may read the half-life as the time needed for the level to fall by half in the phase considered. A low value points to rapid decline. Regarding `COc1cccc(-c2cn3c(n2)sc2cc(C(=O)NCCc4ccc(OC)c(OC)c4)ccc23)c1`, the half-life was determined as 2.26 min.

On to `Cc1ccc(-c2cc(C(=O)NCc3cnn(C)c3C)c3cc(Br)ccc3n2)cc1`, for which the half-life was found to be 12 min.

The compound `C[S+](=O)([O-])N1CCC(Cn2ccc3c(N4CCOCC4)nc(-c4cccc5[nH]ccc45)cc32)CC1` came in with a half-life of 15.9 min. The half-life values of the last two compounds are within 1.5-fold of each other.

`O=C(Nc1ncc(Cc2ccc(C(F)(F)F)cc2)s1)c1ccc(-c2cccnc2)o1`: the half-life is over 30 min.

Compound `COc1cccc(CNc2ccc(S(=O)(=O)Nc3ccc4ccccc4c3)cc2)c1O` displayed a half-life of 10 min.

`O=C(NC1CCCc2c1[nH]c1c(Cl)cccc21)c1ccc2c(c1)OCO2` (configuration not stated): the half-life was 12.8 min. This half-life and that of the compound before are within 1.5-fold of each other.

The compound `CCOc1ccc(CCNC(=O)c2cc3sccc3n2CCN2CCN(C)CC2)cc1OCC` had a half-life of 6.2 min.

Take `O=C1Nc2ccc(-c3cccc(C(F)(F)F)c3)cc2C(=O)N2CCN(C(=O)COc3ccccc3)C[C@H]12`: the half-life was found to be 5.73 min. The half-life values of the last two compounds are within 1.5-fold of each other.

Turning to `CC(=O)c1cccc(-c2csc(N3CCC(C(N)=O)CC3)n2)c1`, the half-life came to 2.21 min. Against the preceding compound, the half-life is about 2.6-fold lower.

Take `CNC1(c2ccccc2Cl)CCCCC1=O` (configuration not stated): the half-life was 4.44 min.

`O=S(=O)(Nc1nccs1)c1ccc(NCc2cccc(F)c2O)cc1` returned a half-life of 16 min. Compared with the last compound, the half-life is about 3.6-fold higher.

Compound `O=S(=O)(Nc1nccs1)c1ccc(NCc2ccccc2)cc1` gave a half-life of 10 min.

Turning to `O=C(Nc1cccc(Cc2ccccc2)c1)c1ccc(-c2cccc([N+](=O)[O-])c2)o1`, the half-life was determined as 2.5 min.

In turn, `O=C(Nc1nc(-c2ccccc2)cs1)c1ccncc1NS(=O)(=O)c1ccc(N2CCCC2=O)cc1` gave a half-life of 1.6 min. This half-life is about 1.6-fold lower than that of the compound before.

`CCN(CCCOc1ccc2c(Nc3cc(CC(=O)Nc4cccc(F)c4)[nH]n3)ncnc2c1)CCOP(=O)(O)O` yielded a half-life of over 30 min.

Consider `CC(C)c1ccccc1-c1ncc(F)c(NCc2ccc(-c3ccn[nH]3)cc2)n1`, for which the half-life was determined as 2.8 min.

On to `Cc1sc2c(c1C)C(c1ccc(Cl)cc1)=N[C@@H](CC(=O)OC(C)(C)C)c1nnc(C)n1-2`, for which the half-life is 6.4 min.

With `Cc1sc2c(c1C)C(c1ccc(Cl)cc1)=N[C@H](CC(=O)NCCCCNC(=O)COc1cccc3c1C(=O)N([C@H]1CCC(=O)NC1=O)C3=O)c1nnc(C)n1-2`, the half-life turned out to be 4.93 min.

`O=C(NCC1CCN(Cc2cccc(Cl)c2)CC1)Nc1ccc(F)c(Cl)c1` showed a half-life of 22.7 min.

As for `COc1ccc(C2Nc3ccccc3C(=O)N2Cc2ccco2)cc1COc1ccc(NC(C)=O)cc1` (configuration not stated), the half-life was 1.35 min and 2.57 min.

Turning to `NC(=O)C1CCN(c2nc(-c3ccc(Oc4ccccc4)cc3)cs2)CC1`, the half-life was determined as 18.5 min.

The compound `CC(C)(C)c1ccc(OCc2nn3c(-c4ccncc4)nnc3s2)cc1` gave a half-life of 19.6 min.

Take `COc1ccc(-n2c(C)c(C(C)=O)c3ccccc32)cc1`: the half-life amounted to 2.4 min. Against the preceding compound, the half-life is about 8.2-fold lower.

On to `CN(C)CCOC1=Cc2ccccc2Sc2ccc(Cl)cc21`, for which the half-life came out at 1.29 min.

`Cc1ccc(NS(=O)(=O)c2cccc(C(=O)Nc3nc(-c4ccccc4)cs3)c2)cc1` registered a half-life of 6.7 min. Against the preceding compound, the half-life is about 5.2-fold higher.

In the case of `Cc1ccccc1CN1C2=NCCN2C(=O)C2=C1CCN(Cc1ccccc1)C2`, the half-life turned out to be 6.82 min. This half-life and that of the compound before are within 1.5-fold of each other.

In turn, `COc1cccc(C(=O)Nc2ccc3c(N4CCOCC4)ncnc3c2)c1` displayed a half-life of 27.3 min.

Compound `O=C1Nc2ccccc2/C1=C\c1ccc(O)cc1` returned a half-life of 14 min.

In the case of `COc1cccc(CNc2ccc(S(=O)(=O)Nc3cccc4ccccc34)cc2)c1O`, the half-life is 5.8 min.

Compound `COc1ccc(-c2csc(NC(=O)c3ccccc3NS(=O)(=O)c3ccc(C)cc3)n2)cc1` registered a half-life of 2.34 min. This half-life lies about 2.5-fold lower than the previous one.

Regarding `CCN(CC)c1ccc(Nc2nc(Cl)ncc2Br)cc1`, the half-life is 6.24 min. This half-life is about 2.7-fold higher than that of the compound before.

Compound `N=c1c2c(n(Cc3ccccc3)c3c1CCC3)CCC2` had a half-life of 4.04 min. Against the preceding compound, the half-life is about 1.5-fold lower.

For `CCOC(=O)c1ccc(NC(=O)N2Cc3[nH]cnc3C[C@H]2c2nc(C(C)C)no2)cc1`, the half-life amounted to 6.65 min.

On to `COc1ccc(OC)c(CN2CCNc3cc(Nc4ccccc4)ncc3C2)c1`, for which the half-life was 2.23 min.

Consider `Cc1ccc(S(=O)(=O)Nc2cnccc2C(=O)Nc2nc(-c3cnn(C)c3)cs2)cc1`, for which the half-life was determined as 13 min.

With `CCOC(=O)C1CCN(C(=O)C2(NC(=O)Nc3ccccc3Cl)CCCC2)CC1`, the half-life was 1.5 min.

Compound `CNC(=O)c1cccc(-c2cnc(Nc3cccc(C(F)(F)F)c3)c3c2CCO3)c1` returned a half-life of over 30 min.

In turn, `COC(=O)CNC(=O)c1nc(-c2ccc(Cl)nc2)c2ccccn12` came in with a half-life of 4.72 min.

Regarding `CC(NCc1ccc2c(c1)nc(NC(=O)c1ccc(-c3cn[nH]c3)s1)n2CC(C)(C)O)C(C)(C)C` (configuration not stated), the half-life is 18.8 min.

With `O=[S+]([O-])(Nc1nccs1)c1ccc(NCc2cccc(Cl)c2)cc1`, the half-life is 15 min.

In the case of `COc1cc(C(=O)Nc2nc(-c3ccccc3)cs2)ccc1NS(=O)(=O)c1ccc(C)cc1`, the half-life was determined as 5.2 min.

Compound `COc1cccc(CNc2ccc(S(=O)(=O)Nc3cccc4ccncc34)cc2)c1O` returned a half-life of 10 min.

`Cc1ccc(-n2c(C)cc(-c3nnc4n3CCCCC4)c2C)cc1` had a half-life of 1.62 min.

In turn, `NC(=O)c1sc2nc3c(c(-c4cccs4)c2c1N)CCCC3` had a half-life of 2 min.

With `CC(=O)OC[C@]12CCC(C)=C[C@H]1O[C@@H]1[C@H](O)[C@@H](OC(C)=O)[C@@]2(C)[C@]12CO2`, the half-life is over 30 min.

As for `COC(=O)Nc1nc2ccc(C(=O)c3ccccc3)cc2[nH]1`, the half-life was over 30 min.

In turn, `Cc1nnc2n1-c1ccc(Cl)cc1C(c1ccccc1)=NC2` displayed a half-life of 21.2 min.

As for `CSc1ccc(-c2cnc(N3CCC(C(N)=O)CC3)s2)cc1`, the half-life came out at 1.53 min. Against the preceding compound, the half-life is about 14-fold lower.

`COc1cc(Nc2nc(-c3ccncc3)nc3ccccc23)ccc1N1CCN(C)CC1` displayed a half-life of 11 min.

On to `O=C1CCCC2=C1C(c1ccncc1Br)N=C(Nc1nc3ccccc3o1)N2` (configuration not stated), for which the half-life worked out at 6.5 min.

`Cc1c(O)ccc2c1OC(C)(C)CC2`: the half-life was 3.9 min. Compared with the last compound, the half-life is about 1.7-fold lower.

The compound `CCCCCOc1ccccc1/C(=C\SC)n1ccnc1` returned a half-life of 6.67 min.

`O=C(Nc1nc(-c2ccccc2)cs1)c1ccncc1NS(=O)(=O)c1ccccc1F` gave a half-life of 7 min.

Consider `CS(=O)(=O)c1ccc2nc(NC(=O)C3CC3)sc2c1`, for which the half-life is over 30 min.

`COc1cccc(-c2csc(NC(=O)c3ccncc3NS(=O)(=O)c3ccc(C)cc3)n2)c1`: the half-life came out at 1.85 min.

In the case of `COC(=O)c1ccc(NS(=O)(=O)c2c(C)nc3sccn3c2=O)cc1`, the half-life was determined as 3.88 min.

In turn, `Cc1cc(F)ccc1S(=O)(=O)Nc1cnccc1C(=O)Nc1nc(-c2ccccc2)cs1` registered a half-life of 20 min.

In turn, `COc1ccccc1NC(=O)C1=C(C)Nc2c(C(=O)Nc3cccc(C)c3)cnn2C1c1ccccc1Cl` (configuration not stated) showed a half-life of 2.98 min.

`N#CC1(c2ccc(NC(=O)c3cccnc3NCc3ccncc3)cc2)CCCC1` showed a half-life of 9.14 min.

Consider `O=C(Nc1ccc2c(N3CCCCC3)ncnc2c1)c1cc(F)cc(F)c1`, for which the half-life amounted to 1.5 min.

Regarding `FC(F)(F)c1ccccc1-c1nc(NCc2cccs2)c2ccccc2n1`, the half-life came out at 2.5 min.

`FC(F)(F)c1cccc(N2CCN(C(=S)Nc3nccc4ccccc34)CC2)c1`: the half-life was over 30 min.

On to `CN1C(=O)CN=C(c2ccc[nH]2)c2cc(Cl)ccc21`, for which the half-life amounted to 16 min.

With `CCN1CCC(N(Cc2ccc3c(c2)OCO3)C(=O)Nc2cc(Cl)ccc2C(=O)OC)CC1`, the half-life stood at 6.72 min.

Regarding `CSc1nnc2c3ccccc3n(CCc3ccccc3)c2n1`, the half-life worked out at 1.69 min. Against the preceding compound, the half-life is about 4-fold lower.

Compound `Cc1c(NC2=C(Cl)C(=O)N(c3ccccc3)C2=O)c(=O)n(-c2ccccc2)n1C` had a half-life of 23 min.

For the compound `O=C(NCCN1CCOCC1)C1CC(=O)N(c2n[nH]c3cc(Br)ccc23)C1` (configuration not stated), the half-life was over 30 min.

`CC(C)(C)c1ccc(S(=O)(=O)c2cnc(SCC(=O)Nc3ccc(F)c(Cl)c3)[nH]c2=O)cc1` showed a half-life of 5.92 min.

`O=C1CCCC2=C1C1(CCSC1)N=C(Nc1nc3ccccc3o1)N2` (configuration not stated) showed a half-life of 2.5 min.

Turning to `Cc1ccccc1C(=O)N1CCc2cc(-c3nc(NC(=O)CC4CCCCC4)sc3C)ccc21`, the half-life amounted to 11 min.

Consider `CCCCOc1ccc(CC(=O)NO)cc1`, for which the half-life is over 30 min.

The compound `CC(=O)c1c(C)[nH]c(C(=O)Nc2cccc([S+](=O)([O-])N3CC[C@@H](F)C3)c2)c1C` displayed a half-life of 3.2 min.

`O=C(COC(=O)CCC(=O)c1cccs1)NCc1ccco1` displayed a half-life of 1 min.

For `NC(=O)c1cccc(-c2cc(Nc3ccc(OC(F)(F)F)cc3)ncn2)c1`, the half-life was over 30 min.

`Cc1cccc(NC(=S)N2CCN(c3cccc(C(F)(F)F)c3)CC2)c1` returned a half-life of 6 min.

In turn, `Cc1nn(CCc2nc(-c3ccc(OC(F)F)cc3)cs2)c2[nH]c(=O)cc(C(F)(F)F)c12` gave a half-life of 6.9 min.

For `O=[S+]([O-])(Nc1ccc(-c2ccccc2)cc1)c1ccc(NCc2ccc(Cl)cc2O)cc1`, the half-life is 18 min.

Compound `CCC1=Nc2cc(C(=O)NCCCOC)ccc2Sc2ccc(Br)cc21` registered a half-life of 5.46 min.

For the compound `CCOc1cc(=O)n2c(c1C(=O)Nc1cc(OC)c(Cl)cc1OC)CCCC2`, the half-life was over 30 min.

On to `Cc1cc(-c2nnc3n2CCCCC3)c(C)n1-c1ccc(Br)cc1`, for which the half-life turned out to be 2.2 min.

On to `CCOC(=O)c1ccc(-c2ccc3ncnc(NCCc4cnc[nH]4)c3c2)o1`, for which the half-life is over 30 min.

`COc1ccc(CCNc2ncnc3c2c(-c2ccccc2)cn3-c2cccc(Cl)c2)cc1OC` showed a half-life of 2.33 min.

Consider `Fc1ccc(CN2CCOC[C@H]2c2ncc(-c3ccc(Cl)s3)[nH]2)cc1`, for which the half-life came out at 3.47 min.

Compound `COc1ccc(N(C)C(=O)c2cc3c(s2)-c2ccccc2OC3)cc1` had a half-life of 7.6 min.

The compound `COc1ccnc(NC(=S)N2CCN(c3cccc(C(F)(F)F)n3)CC2)c1` returned a half-life of 12 min.

Compound `Cc1ccc(C)c(S(=O)(=O)NCC2CN(Cc3ccccc3)CCO2)c1` (configuration not stated) gave a half-life of 1.6 min.

Regarding `COc1ccc(-c2cc(-c3ccccc3)nc(SCC(=O)Nc3ccccc3C)c2C#N)cc1`, the half-life was 2.47 min. Compared with the last compound, the half-life is about 1.5-fold higher.

For the compound `O=c1[nH]cnc2nc[nH]c12`, the half-life was over 30 min.

`COc1cccc(CNc2ccc(S(=O)(=O)Nc3nccs3)cc2)c1N` had a half-life of over 30 min.

As to `COC(=O)CNC(=O)c1nc(-c2ccc(Cl)cc2Cl)c2cnccn12`, the half-life was 3.71 min.

`COc1ccc(-c2ccc3ncc(Nc4ccncc4)n3n2)cc1OC` displayed a half-life of 23 min.

`O=C(c1ccc2c(c1)ncn2-c1ccc(Cl)cc1)N1CCCCC1` showed a half-life of 9.8 min.

The record behind these values is PubChem BioAssay AID1508591.
